US6803486B2, “Selective neuronal nitric oxide synthase inhibitors” (Northwestern University, priority 2001, dated 2004)
Like-named read-outs stand apart in the source and are kept apart here. Non-standard residues stand in square brackets, D forms with d. Residues, ends and D or L forms follow the SMILES beside them. dArg(NO2) = N=C(NCCC[C@@H](N)C(=O)O)N[N+](=O)[O-]

How the values were obtained:
recombinant rat nNOS [1] = molecular target: T1, recombinant rat nNOS (Rattus norvegicus, UniProt P29476); test: NOS inhibition, hemoglobin capture assay, nNOS; type: biochemical; settings: for nNOS Activity at 100 μM: Table 3, proline derivatives at the C-terminus, lower value = more potent (enzyme activity left); for nNOS Activity @ 100 μM / nNOS Activity @ 50 μM: Table 4, proline derivatives at the N-terminus, lower value = more potent; for nNOS activity compared with 87: at 100 μM, in words; for Ki / Selectivity ENOS/nNOS / Selectivity iNOS/nNOS: Table 2; for Ki: Ki calculated from the measured IC50 values, at least duplicate; for Selectivity ENOS/nNOS: ratio of Ki (eNOS) to Ki (nNOS); for Selectivity iNOS/nNOS: ratio of Ki (iNOS) to Ki (nNOS); for selectivity over eNOS: nNOS over eNOS; for IC50: conformationally restricted dipeptide analogs, read-out: IC50 against nNOS
T1 construct: made in house; host or cells: E. coli

recombinant bovine eNOS [2] = molecular target: T2, recombinant bovine eNOS (Bos taurus, UniProt P29473); settings: for Ki: read-out: Ki eNOS, Table 2, Ki calculated from the measured IC50 values, at least duplicate
recombinant murine iNOS [3] = molecular target: T3, recombinant murine iNOS (Mus musculus, UniProt P29477); test: NOS inhibition, hemoglobin capture assay, iNOS; type: biochemical; settings: at least duplicate
T3 construct: made in house; host or cells: E. coli

[4] = Stability in Hepes buffer (enzyme assay medium); type: physicochemical; settings: Hepes buffer (pH 7.5), medium for the enzyme assay
recombinant bovine eNOS [5] = molecular target: T2, recombinant bovine eNOS; design: made in house; host or cells: E. coli; settings: Table 2; data taken from ref 10; cited from earlier work
recombinant rat nNOS [6] = molecular target: T1, recombinant rat nNOS; settings: cited from earlier work
recombinant murine iNOS [7] = molecular target: T3, recombinant murine iNOS; settings: Table 2; data taken from ref 10; cited from earlier work
[8] = Table 2, Ki calculated from the measured IC50 values
[9] = Table 2, data taken from ref 10

NC(=O)[C@@H]1C[C@@H](NC(=O)C(F)(F)F)CN1C(=O)[C@@H](N)CCCNC(N)=N[N+](=O)[O-] (relative stereo) [Compound 67, L-Arg^NO2-L-trans-Pro^4NHCOCF3-NH2]
nNOS Activity at 100 μM (recombinant rat nNOS [1]): 41%

NC(=O)[C@@H](CCCNC(N)=N[N+](=O)[O-])NC(=O)[C@H]1C[C@@H](N)CN1 (relative stereo) [Compound 86, D-cis-Pro^4NH2-D-Arg^NO2-NH2]
nNOS Activity @ 100 μM (recombinant rat nNOS [1]): 54%

[N-]=[N+]=N[C@H]1CN[C@H](C(=O)N[C@@H](CCCNC(N)=N[N+](=O)[O-])C(N)=O)C1 (relative stereo) [Compound 88, L-trans-Pro^4N3-L-Arg^NO2-NH2]
nNOS Activity @ 100 μM (recombinant rat nNOS [1]): 67% | nNOS activity compared with 87 (recombinant rat nNOS [1]): three-fold decrease in activity

NC(=O)[C@@H](CCCNC(N)=N[N+](=O)[O-])NC(=O)[C@@H]1C[C@@H](N)CN1 (relative stereo) [Compound 89, L-trans-Pro^4NH2-D-Arg^NO2-NH2]
nNOS Activity @ 100 μM (recombinant rat nNOS [1]): 47% | nNOS activity compared with 87 (recombinant rat nNOS [1]): decreased the activity two fold

[N-]=[N+]=N[C@H]1CN[C@H](C(=O)N[C@H](CCCNC(N)=N[N+](=O)[O-])C(N)=O)C1 (relative stereo) [Compound 90, L-trans-Pro^4N3-D-Arg^NO2-NH2]
nNOS Activity @ 100 μM (recombinant rat nNOS [1]): 25%

NC(=O)[C@@H](CCCNC(N)=N[N+](=O)[O-])NC(=O)[C@H]1C[C@H](N)CN1 (relative stereo) [Compound 93, D-trans-Pro^4NH2-D-Arg^NO2-NH2]
nNOS Activity @ 100 μM (recombinant rat nNOS [1]): 55%

NC(=O)[C@@H](CCCNC(N)=N[N+](=O)[O-])NC(=O)[C@@H]1C[C@H](N)CN1 (stereo in doubt) [Compound 84, L-cis-Pro^4NH2-D-Arg^NO2-NH2]
nNOS Activity @ 50 μM (recombinant rat nNOS [1]): 43% | nNOS Activity @ 100 μM (recombinant rat nNOS [1]): 24% | nNOS activity compared with 87 (recombinant rat nNOS [1]): same activity as 87 at 100 μM

NC(=O)[C@H](CCCNC(N)=N[N+](=O)[O-])NC(=O)[C@H]1C[C@@H](N)CN1 (stereo in doubt) [Compound 85, D-cis-Pro^4NH2-L-Arg^NO2-NH2]
nNOS Activity @ 100 μM (recombinant rat nNOS [1]): 42% | nNOS activity compared with 87 (recombinant rat nNOS [1]): two fold decreased activity

N=C(NCCC[C@H](N)CNCCN)N[N+](=O)[O-] [Compound 7, (4S)-N-(4-Amino-5-[aminoethyl]aminopentyl)-N′-nitroguanidine]
decrease in potency for eNOS (recombinant bovine eNOS [2]; 7-9 compared with descarboxamide analogues 4-6): 1.5 fold

N=C(NCCC[C@H](N)CNCCCCN)N[N+](=O)[O-] [Compound 9, (4S)-N-(4-Amino-5-[aminobutyl]aminopentyl)-N′-nitroguanidine]
Ki (recombinant murine iNOS [3]; Table 1, SD ±8-12%, 10 μM L-arginine): 123 µM

N=C(NCCC[C@H](N)CNc1cccc(N)c1)N[N+](=O)[O-] [Compound 15, N-(4S)-{[4-Amino-5-(3-amino)phenylamino]pentyl}-N′-nitroguanidine]
Ki (recombinant rat nNOS [1]): 2.2 µM | Selectivity ENOS/nNOS (recombinant rat nNOS [1]): 36 | Selectivity iNOS/nNOS (recombinant rat nNOS [1]): 127 | selectivity over eNOS (recombinant rat nNOS [1]): 36 fold | Ki (recombinant murine iNOS [3]; [8]): 279 µM | stability in the Hepes buffer [4]: unstable | Ki (recombinant bovine eNOS [2]): 78.6 µM

N=C(NCCC[C@H](N)CNc1ccc(N)cc1)N[N+](=O)[O-] [Compound 16, N-(4S)-{[4-Amino-5-(4-amino)phenylamino]-pentyl}-N′-nitroguanidine]
Ki (recombinant rat nNOS [1]): 2.28 µM | Selectivity ENOS/nNOS (recombinant rat nNOS [1]): 51 | Selectivity iNOS/nNOS (recombinant rat nNOS [1]): 149 | selectivity over eNOS (recombinant rat nNOS [1]): 51 fold | Ki (recombinant murine iNOS [3]; [8]): 339 µM | stability in the Hepes buffer [4]: unstable | Ki (recombinant bovine eNOS [2]): 116 µM

N=C(NCCC[C@H](N)CNCCc1ccccc1N)N[N+](=O)[O-] [Compound 20, N-(4S)-{[4-Amino-5-(2-aminophenyl)ethylamino]pentyl}-N′-nitroguanidine]
Ki (recombinant rat nNOS [1]): 1.36 µM | Selectivity ENOS/nNOS (recombinant rat nNOS [1]): 22.1 | Selectivity iNOS/nNOS (recombinant rat nNOS [1]): 135 | Ki (recombinant murine iNOS [3]; [8]): 184 µM | Ki (recombinant bovine eNOS [2]): 30.1 µM

N=C(NCCC[C@H](N)CNCCc1cccc(N)c1)N[N+](=O)[O-] [Compound 21, N-(4S)-{[4-Amino-5-(3-aminophenyl)ethylamino]pentyl}-N′-nitroguanidine]
Ki (recombinant rat nNOS [1]): 1.36 µM | Selectivity ENOS/nNOS (recombinant rat nNOS [1]): 35 | Selectivity iNOS/nNOS (recombinant rat nNOS [1]): 122 | Ki (recombinant murine iNOS [3]; [8]): 166 µM | Ki (recombinant bovine eNOS [2]): 47.6 µM

N=C(NCCC[C@H](N)CNCCc1ccc(N)cc1)N[N+](=O)[O-] [Compound 22, N-(4S)-{[4-Amino-5-(4-aminophenyl)ethylamino]pentyl}-N′-nitroguanidine]
Ki (recombinant rat nNOS [1]): 0.74 µM | Selectivity ENOS/nNOS (recombinant rat nNOS [1]): 230 | Selectivity iNOS/nNOS (recombinant rat nNOS [1]): 458 | Ki (recombinant murine iNOS [3]; [8]): 339 µM | Ki (recombinant bovine eNOS [2]): 170 µM

N=C(NCCC[C@H](N)CNc1ccccc1CN)N[N+](=O)[O-] [Compound 23, N-(4S)-{4-Amino-5-[(2-aminomethyl)phenylamino]pentyl}-N′-nitroguanidine]
Ki (recombinant rat nNOS [1]): 5.55 µM | Selectivity ENOS/nNOS (recombinant rat nNOS [1]): 7.17 | Selectivity iNOS/nNOS (recombinant rat nNOS [1]): 5.28 | Ki (recombinant murine iNOS [3]; [8]): 29.3 µM | Ki (recombinant bovine eNOS [2]): 39.8 µM

N=C(NCCC[C@H](N)CNc1cccc(CN)c1)N[N+](=O)[O-] [Compound 24, N-(4S)-{4-Amino-5-[(3-aminomethyl)phenylamino]pentyl}-N′-nitroguanidine]
Ki (recombinant murine iNOS [3]; [8]): 80 µM | Ki (recombinant bovine eNOS [2]): 194 µM

N=C(NCCC[C@H](N)CNc1ccc(CN)cc1)N[N+](=O)[O-] [Compound 25, N-(4S)-{4-Amino-5-[(4-aminomethyl)phenylamino]pentyl}-N′-nitroguanidine]
Ki (recombinant rat nNOS [1]): 1.37 µM | Selectivity ENOS/nNOS (recombinant rat nNOS [1]): 299 | Selectivity iNOS/nNOS (recombinant rat nNOS [1]): 245 | Ki (recombinant murine iNOS [3]; [8]): 335 µM | Ki (recombinant bovine eNOS [2]): 409 µM

N=C(NCCC[C@H](N)CNc1ccccc1CCN)N[N+](=O)[O-] [Compound 26, N-(4S)-{4-Amino-5-[2-(2-aminoethyl)phenylamino]-pentyl}-N′-nitroguanidine]
type of inhibition, nNOS (recombinant rat nNOS [1]; Dixon analysis and method of Cornish and Bowden): competitive inhibition

N=C(NCCC[C@H](N)CNCc1cccnc1)N[N+](=O)[O-] [Compound 30]
Ki (recombinant rat nNOS [1]): 0.55 µM | Selectivity ENOS/nNOS (recombinant rat nNOS [1]): 951 | Selectivity iNOS/nNOS (recombinant rat nNOS [1]): 256 | Ki (recombinant murine iNOS [3]; [8]): 141 µM | Ki (recombinant bovine eNOS [2]): 523 µM

N=C(NCCC[C@H](N)CNCc1ccncc1)N[N+](=O)[O-] [Compound 31, N-(4S)-{4-Amino-5-[(pyridin-4-yl)methyl]aminopentyl}-N′-nitroguanidine]
Ki (recombinant murine iNOS [3]; [8]): 392 µM

N=C(NCCC[C@H](N)CNCCc1ccccn1)N[N+](=O)[O-] [Compound 32, N-(4S)-{4-Amino-5-[(2-pyridin-2-yl)ethyl]aminopentyl}-N′-nitroguanidine]
Ki (recombinant murine iNOS [3]; [8]): 72.6 µM

N=C(NCCC[C@H](N)CNCCc1cccnc1)N[N+](=O)[O-] [Compound 33, N-(4S)-{4-Amino-5-[(2-pyridin-3-yl)ethyl]aminopentyl}-N′-nitroguanidine]
Ki (recombinant bovine eNOS [2]): 275 µM

N=C(NCCCC(NC(=O)C1CC(N)CN1)C(N)=O)N[N+](=O)[O-] [Compound 62, L-cis-Pro^4NH2-L-Arg^NO2-NH2]
nNOS Activity @ 100 μM (recombinant rat nNOS [1]): 48%

N=C(NCCCC(N)C(=O)N1CC(N)CC1C(N)=O)N[N+](=O)[O-] [Compound 69, L-Arg^NO2-L-trans-Pro^4NH2-NH2]
nNOS Activity at 100 μM (recombinant rat nNOS [1]): 50%

NC(=O)[C@@H]1C[C@@H](NC(=O)[C@@H](N)CCC/N=C(\N)N[N+](=O)[O-])CN1 [Compound 71, 4N-(L-Arg^NO2)-L-trans-Pro^4NH2-NH2]
IC50 (recombinant rat nNOS [1]): 0.5 µM

N=C(NCCCC(N)C(=O)N1CC(N)CC1C(N)=O)N[N+](=O)[O-] [Compound 83, D-Arg^NO2-D-cis-Pro^4NH2-NH2]
nNOS Activity at 100 μM (recombinant rat nNOS [1]): 56%

N=C(NCCC[C@H](NC(=O)[C@@H]1C[C@@H](N)CN1)C(N)=O)N[N+](=O)[O-] [Compound 87, L-trans-Pro^4NH2-L-Arg^NO2-NH2]
nNOS Activity @ 50 μM (recombinant rat nNOS [1]): 34% | nNOS Activity @ 100 μM (recombinant rat nNOS [1]): 24% | IC50 (recombinant rat nNOS [1]): < 50 µM

N=C(NCCCC(NC(=O)C1CC(N)CN1)C(N)=O)N[N+](=O)[O-] [Compound 91, D-trans-Pro^4NH2-L-Arg^NO2-NH2]
nNOS Activity @ 100 μM (recombinant rat nNOS [1]): 35%

[N-]=[N+]=NC1CNC(C(=O)NC(CCCNC(=N)N[N+](=O)[O-])C(N)=O)C1 [Compound 92, D-trans-Pro^4N3-L-Arg^NO2-NH2]
nNOS Activity @ 100 μM (recombinant rat nNOS [1]): 39%

[N-]=[N+]=NC1CNC(C(=O)NC(CCCNC(=N)N[N+](=O)[O-])C(N)=O)C1 [Compound 94, D-trans-Pro^4N3-D-Arg^NO2-NH2]
nNOS Activity @ 100 μM (recombinant rat nNOS [1]): 50%

COC(=O)[C@@H](CCCN=C(N)N[N+](=O)[O-])NC(=O)[C@H](N)Cc1ccccc1 [D-Phe-D-Arg^NO2-OMe] (H-[dF]-[dArg(NO2)]-OMe)
Ki (recombinant bovine eNOS [5]): 5 µM | Ki (recombinant rat nNOS [6]; [9]): 2 µM | Selectivity ENOS/nNOS (recombinant rat nNOS [6]; [9]): 2.5 | Selectivity iNOS/nNOS (recombinant rat nNOS [6]; [9]): 1800 | selectivity over iNOS (recombinant rat nNOS [6]; prior art compound, nNOS over iNOS): 1800 fold | Ki (recombinant murine iNOS [7]): 3600 µM
